Values quoted from earlier work, collected in patent US12606590B2, “MRNA 5′-end cap analogs, RNA molecule incorporating the same, uses thereof and method of synthesizing RNA molecule or peptide” (Uniwersytet Warszawski, priority 2020, dated 2026).

Settings: in vitro and in vivo; single atom substitution in β position of cap oligophosphate bridge

## CO[C@@H]1[C@H](O)[C@@H](COP(=O)(O)OP(=O)([S-])OP(=O)(O)OC[C@H]2O[C@@H](n3cnc4c(=O)[nH]c(N)nc43)[C@H](O)[C@@H]2O)O[C@H]1n1c[n+](C)c2c(O)nc(N)nc21 (stereo partly drawn) [β-S-ARCA]
  mRNA translation efficiency: significant increase in mRNA translation efficiency
